Several values for one entry are separate records, joined by “and”; a condition that tells them apart may be missing. Equal values may be shown once.
How the values were obtained:
brain tumor cell lines = assay: IC50 determination through drug-response curves; type: cell-based; settings: range across the brain tumor cell lines
Procedure: (§1) Cells were treated with TMZ (Sigma-Aldrich), Paclitaxel (Sigma-Aldrich) and Mebendazole (Sigma-Aldrich) as a monotherapy or in combination with TTFields. Each of the drugs were administered at their IC50 (high dose) or 10% IC50 (low dose), with the IC50s being determined through drug-response curves.
(§2) PrestoBlue™ was added to each sample at a time-point at a 1:10 dilution. Samples were incubated at 37° C. for 30 minutes. 100 μ1 (triplicate) of the PrestoBlue solution was transferred to a black-bottomed 96-well plate and fluorescence was analyzed via UV-Vis Spectroscopy at excitation/emission wavelengths at 560/590 nm with the FLUOstar Omega (BMG Labtech).

SF188 cells = settings: human, 72 h
Procedure: as §1
(§3) TTFields were applied using the Inovitro™ system (Novocure, Haifa). The system consists of two pairs of perpendicular transducer arrays on the outer walls of a ceramic Petri dish. A sinusoidal waveform generator was attached to the transducer arrays to produce alternating electric fields at frequencies between 100-400 kHz and 1.75V/cm intensity. The electric fields alternated orientation of 90° every second. The temperature was measured to be 37° C. inside the dishes by 2 thermistors attached to the ceramic walls.
as §2

UW228-3 cells = settings: human, 72 h
Procedure: as §1, §3, §2

BXD-1425EPN cells = settings: human, 72 h
Procedure: as §1, §3, §2

SMILES | IC50 (brain tumor cell lines) | reduction of cell viability (SF188 cells) [%] | reduction of cell viability (UW228-3 cells) [%] | reduction of cell viability (BXD-1425EPN cells) [%]
CC(=O)O[C@H]1C(=O)[C@@]2(C)[C@H]([C@H](OC(=O)c3ccccc3)[C@]3(O)C[C@H](OC(=O)[C@H](O)[C@@H](NC(=O)c4ccccc4)c4ccccc4)C(C)=C1C3(C)C)[C@]1(OC(C)=O)CO[C@@H]1C[C@@H]2O [Paclitaxel] | 0.36 to 4.6 nM and 0.4 to 4.6 nM | 30 | 32 | 23
COC(=O)Nc1nc2ccc(C(=O)c3ccccc3)cc2[nH]1 [Mebendazole] | 30 to 1200 nM and 20 to 1200 nM | 39 | 28 | 30
